Experimental data reported in the NIST ThermoML archive (doi:10.1021/je060271a).

Details: 323.14 K, Liquid, Vibrating tube method

CCCCCCC(=O)OCC(COC(=O)CCCCCC)(COC(=O)CCCCCC)COC(=O)CCCCCC [pentaerythritol tetraheptanoate]
Details | mass density [kg/m3]
141.6 kPa | 955.8
142.1 kPa | 955.7
142.7 kPa | 955.7
143.5 kPa | 955.7
146.5 kPa | 955.7
148.2 kPa | 955.7
149.1 kPa | 955.7
149.8 kPa | 955.7
150.7 kPa | 955.7
151.7 kPa | 955.7
160.6 kPa | 955.8
191.9 kPa | 955.7
198.5 kPa | 955.7
199.7 kPa | 955.7
201.6 kPa | 955.8
203.3 kPa | 955.6
206.3 kPa | 955.6
208.7 kPa | 955.6
211.5 kPa | 955.7
213.8 kPa | 955.8
216.2 kPa | 955.6
219 kPa | 955.8
222.1 kPa | 955.7
224.9 kPa | 955.7
228.5 kPa | 955.7
231.8 kPa | 955.6
234.6 kPa | 955.7
237.8 kPa | 955.7
248.7 kPa | 955.8
252.3 kPa | 955.7
256.9 kPa | 955.6
260.9 kPa | 955.8
269.9 kPa | 955.8
274.2 kPa | 955.7
279.5 kPa | 955.8
284.3 kPa | 955.8
289.2 kPa | 955.7
294.6 kPa | 955.8
300.8 kPa | 955.7
306.2 kPa | 955.9
313.2 kPa | 955.9
325.7 kPa | 955.8
332.1 kPa | 955.9
355.4 kPa | 955.9
382.3 kPa | 955.9
391.6 kPa | 956
402.9 kPa | 955.9
412.9 kPa | 955.8
423.9 kPa | 955.8
437.3 kPa | 955.8
478.1 kPa | 956
585.3 kPa | 955.9
606 kPa | 955.9
632.9 kPa | 956
657.4 kPa | 955.9
683.2 kPa | 956
747.4 kPa | 956.1
859.8 kPa | 956
901.9 kPa | 956.1
946 kPa | 956.2
1003.2 kPa | 956.3
1051.3 kPa | 956.3
1084.8 kPa | 956.4
1163.8 kPa | 956.3
1174 kPa | 956.4
1215.6 kPa | 956.4
1248.5 kPa | 956.5
1269 kPa | 956.4
1336.1 kPa | 956.5
1342 kPa | 956.5
1347.9 kPa | 956.5
1355 kPa | 956.5
1360.7 kPa | 956.6
1366.8 kPa | 956.5
1374.4 kPa | 956.5
1380.5 kPa | 956.5
1386.8 kPa | 956.6
1393.9 kPa | 956.6
1400.3 kPa | 956.5
1406.6 kPa | 956.7
1414.7 kPa | 956.6
1515.9 kPa | 956.7
1530.9 kPa | 956.7
1537.8 kPa | 956.7
1547 kPa | 956.7
1554.5 kPa | 956.7
1561.9 kPa | 956.7
1571 kPa | 956.8
1578.6 kPa | 956.7
1586.4 kPa | 956.6
1596.1 kPa | 956.6
1604 kPa | 956.7
1612.1 kPa | 956.7
1637.6 kPa | 956.7
1645.8 kPa | 956.8
1655.5 kPa | 956.8
1664.2 kPa | 956.7
1672.2 kPa | 956.7
1680.7 kPa | 956.8
1690.9 kPa | 956.8
1699.8 kPa | 956.8
1708.3 kPa | 956.8
1756.9 kPa | 956.8
1766.2 kPa | 956.7
1784.8 kPa | 956.7
1795.8 kPa | 956.8
1805 kPa | 956.9
1816.8 kPa | 956.8
1826.5 kPa | 956.8
1836.5 kPa | 956.8
1847 kPa | 956.8
1857.2 kPa | 957
